Laboratory results taken from article PMC12042267, “Expanding the Family of Monosubstituted 15-Membered Pyridine-Based Macrocyclic Ligands for Mn(II) Complexation in the Context of MRI” (Inorganic Chemistry, 2025).

Tests used:
Type in all cases: physicochemical
[1] = Stability constants of Cu(II) complexes by pH-potentiometry; details: I = 0.15 M NaCl, 25 °C
Description: (§1) Metal stock solutions were prepared from the highest analytical grade chemicals, and their concentration was determined by complexometric titration with standardized Na2H2EDTA, using xylenol orange indicator in the presence of urotropine buffer (ZnCl2 and MnCl2); Eriochrome black T indicator in the presence of ammonium acetate buffer (CaCl2) or murexide indicator in ammonium solution (CuCl2). The concentration of the ligand stock solutions was determined by pH-potentiometric titrations (the difference between two consecutive inflection points of the ligand titration curve corresponds to two (L2) or one (L3) ligand equivalents). To determine the protonation constants of the ligand and stability constants of the metal complexes with selected divalent metal ions, pH-potentiometric titrations were carried out with 0.1 M NaOH at 2 mM ligand concentration, in the absence (for ligand protonation constants) or in the presence of one equivalent of metal ion (for stability constants). During the titration, the waiting time was 2 min between successive points (V0 = 5 mL). The temperature (25.0 ± 0.1 °C) was controlled by a circulating water bath. The ionic strength was set to I = 0.15 M NaCl. All titrations were performed under a nitrogen atmosphere to avoid the effect of CO2. Titrations were carried out in the pH range from 1.8 (L3) or 2.0 (L2) (after the addition of 1 M HCl solution to the starting ligand solution in the titration cell) to pH 11 (or until precipitation of the metal hydroxide). All pH-potentiometric titrations were performed using a 785 DMP Titrino titration workstation with a combined electrode (Metrohm). The p[H] (p[H] = −log[H+], concentration in molarity) was measured in each titration with a combined pH glass electrode (Metrohm) filled with 3 M KCl. The electrode was calibrated in hydrogen ion concentration by titration of HCl with KOH in 0.1 M electrolyte solution.[37] A plot of potential versus p[H] allows determination of the electrode standard potential (E°) and the slope factor (f).
(§2) The protonation constants of the ligand (log Ki^H) are defined as follows [drawing 1] where i = 1, 2, ··· and [Hi–1L] and [H^+] are the equilibrium concentrations of the ligand (i = 1), its protonated forms (i = 2, ···), and the hydrogen ion. The stability (KML) and the protonation (KMHiL) constants for the metal complexes are defined as follows [drawing 2] [drawing 3] For the calculations of the equilibrium constants, the HYPERQUAD program was used.[38] The number of fitted data pairs was between 190 and 240. The ionic product of water at 25 °C and 0.1 M ionic strength is pKw = 13.77.[39] Fixed values were used for pKw, ligand acidity constants, and total concentrations of metal, ligand, and acid. All values and errors (one standard deviation) reported are at least the average of two independent experiments.

[2] = Stability constants of Zn(II) complexes by pH-potentiometry; details: I = 0.15 M NaCl, 25 °C
Description: as §1, §2

[3] = Stability constants of Mn(II) complexes by pH-potentiometry, pMn and species distribution; details: for log KML / log KML(OH): Mn(II), I = 0.15 M NaCl, 25 °C; for pMn: pMn = −log[Mn(II)]free at pH 7.4, cMn = clig = 10^–5 M
Description: as §1, §2
To obtain further information about the impact of a given pendant arm, it is interesting to calculate pMn values (pMn = −log[Mn(II)]free at pH 7.4, cMn = clig= 10^–5 M) which provide a more direct comparison of MnL stabilities, independently of differences in protonation constants (Table 4). […] Nevertheless, the too large, 15-membered macrocyclic cavity combined with a lower number of pendant arms provide ca. 2 orders of magnitude lower stability for Mn(II) complexation as compared to the 12-membered pyclen derivatives (Table 4).

[4] = Dissociation kinetics of Mn(II) complexes, transmetalation with Zn(II) (T2 relaxation); details: Zn(II) transmetalation, 25 °C, 0.15 M NaCl, pH 4.9–6.0
Description: The transmetalation reaction of MnL2 and MnL3 (1.4 mM) was monitored in the presence of 10, 20, 30, and 40 mol equiv of Zn(II) ions, by measuring water proton T2 relaxation times (60 MHz) as a function of time at 25 °C and in 0.15 M NaCl, in the pH range 4.9–6.0 (4.9, 5.0, 5.2, 5.5, and 6.0). To control pH, 50 mM N-methyl-piperazine (pH 4.9–5.5) or 50 mM MES (2-(4-morpholino)ethane-sulfonic acid) buffer (pH 5.7–6.0) was used. Transmetalation of MnL2 (0.3 mM) was also investigated in the presence of 10, 20, 30, and 40 mol equiv of Cu(II) ions, by monitoring the UV–vis absorbance at 274.0 nm as a function of time at 25 °C and in 0.15 M NaCl, in the pH range 4.7–5.0 (in 75 mM 1,4-dimethyl piperazine (DMP) buffer). No oxidation of the samples was observed. The program OriginPro 9 was used for the fitting of experimental data.
The dissociation kinetics was followed through monitoring Mn(II) release by water proton T2 measurements, at pH […], in the presence of 10- to 40-fold excess of Zn(II) and through UV–vis measurements in the presence of 10- to 40-fold excess of Cu(II) at pH 4.7–5.0 (only for MnL2). The observed dissociation rate constants, kobs, increase with increasing H^+ ion concentration (Figures 4, left and S20). They remain independent of Zn(II) concentration (Figures S18 and S19), but do show dependence on Cu(II) concentration (Figure S21).
In excess of the exchanging metal ion, the reaction is of pseudo-first order, and the rate is proportional to the total MnL2 or MnL3 concentration (eq 1), where kobs is the pseudo-first-order rate constant. [drawing 4] 1 In general, different dissociation pathways can coexist, implying the participation of protons and/or the exchanging metal ion,[47] as illustrated in Figure 5.
Based on this scheme, the overall rate for either Zn(II) or Cu(II) transmetalation can be given by eq 2, where M = Zn^2+ or Cu^2+ (for clarity, charges of the complexes are omitted). [drawing 5] 2 Here, the first and second terms correspond to the spontaneous dissociation of the nonprotonated and the monoprotonated complexes, respectively, the third term describes the proton-assisted dissociation of the monoprotonated complex, and the last two terms refer to the spontaneous dissociation of the dinuclear complex and metal-assisted dissociation of the monoprotonated MnL2 or MnL3 complex. [MnL]tot describes the total concentration of Mn(II) chelates ([MnL]tot = [MnL] + [MnHL] + [ZnLMn]). Since no obvious Zn(II) dependence (for any of the two systems) was observed, only the spontaneous and proton-assisted dissociation pathways were taken into consideration. Consequently, the observed rate constants can be expressed as in eq 3 with k0 = kMnL, k1 = kMnHL·KMnHL, and k2 = ^HkMnHL·KMnHL. [drawing 6] 3 The kobs rate constants were fitted to eq 3, and the calculated parameters are listed in Table 5 for the Zn(II) exchange. During the fitting procedure, KMnHL was fixed to the value obtained from the pH-potentiometric titrations.

[5] = Ligand protonation constants by pH-potentiometric titration; details: I = 0.15 M NaCl; 25 °C
Description: as §1
as §2, with “All values and errors (one standard deviation) reported are at least the average of two independent experiments.” left out

[6] = Stability constants of Ca(II) complexes by pH-potentiometry; details: I = 0.15 M NaCl, 25 °C
Description: as §1, §2

Row | log KML [1] | log KML(OH) [1] | log KHML [2] | log KML [2] | log KML(OH) [2] | log KML [3] | log KML(OH) [3] | pMn [3] | log K2^H [5] | log K3^H [5] | log KH2ML [6] | log KHML [6] | log KML [6] | log KHML [1] | log KML(OH) [6] | Compound | k0 (spontaneous dissociation of the nonprotonated complex) [4] | k1 (spontaneous dissociation of the monoprotonated complex) [4] [M^–1 s^–1] | k2 (proton-assisted dissociation of the monoprotonated complex) [4]
1 | 16.57(8) | -10.78(8) | 2.99(2) | 13.36(1) | -10.97(2) | 10.25(1) | -10.89(3) | 6.93 | 7.14(1) | 2.1(1) | 6.63(9) | 7.23(7) | 4.11(4) | – | – | c1ccc(CN2CCOCCOCCNCc3cccc(n3)C2)nc1 [L2] | (1.1 ± 0.3) × 10^–3 s^–1 | 737 ± 110 | (4.5 ± 0.8) × 10^7 M^–2 s^–1
2 | 16.91(2) | -7.9(1) | 2.09(6) | 12.09(1) | -9.33(2) | 9.74(1) | -9.78(1) | 6.80 | 5.85(1) | 1.98(1) | – | 6.72(6) | 3.53(1) | 2.1(4) | -10.93(1) | c1cc2nc(c1)CN(Cc1nc3ccccc3[nH]1)CCOCCOCCNC2 [L3] | (1.9 ± 0.3) × 10^–3 s^–1 | 912 ± 41 | –
